Among the data in patent publication US20110294782A1, “SMALL MOLECULE PAK INHIBITORS” (Massachusetts Institute of Technology, priority 2006, published 2011) are Kd values, retold here.

The target of assay [1] is PAK4 (Homo sapiens, UniProt O96013). As to the kind of experiment: biochemical.
Method: When these three components are combined, the test substance is tested for its ability to compete, in a concentration-dependent manner, with the immobilized kinase bait probe for binding for binding to the phage-PAK catalytic domain. Afterwards, the amount of bait probe-bound phage-PAK can be detected, for example, by a phage plaque assay and/or quantitative PCR of phage DNA. The amount of probe-bound phage-PAK is inversely proportional to the affinity of the candidate inhibitor for the kinase and can be used in determining a Kd value of the test substance for the PAK catalytic site, as described below. […]
T7 kinase-tagged phage strains were grown in parallel in 24- or 96-well blocks in an E. coli host derived from the BL21 strain. […] Phage titer in the eluates was measured by standard plaque assays or by quantitative PCR. […]
Kd (probe) is the binding constant for the interaction between the kinase and the immobilized ligand, [Probe] is the concentration of the immobilized ligand [test] ½ is the concentration of the free candidate compound at the midpoint of the transition. […] Under these conditions, binding constants measured for the interaction between kinases and candidate compounds (Kd (test)) are therefore independent of the affinity of the immobilized ligand for the kinase (Kd (probe)). […]
Assay [2] concerns the target T1, PAK1 (Homo sapiens, UniProt Q13153).
T1 construct: full length PAK or a PAK catalytic domain expressed on the surface of T7 bacteriophage; host or cells: T7 phage (modified T7 Select 10-3) grown in a BL21-derived E. coli host
As to the kind of experiment: Competitive binding assay (Ambit), phage-displayed PAK vs immobilized staurosporine bait. From the text:
(§1) Binding data were fit to the equation:
(§2) PFU=L+((H−L)*(Kd(test)/(Kd(test)+[candidate])))

For assay [3], the target named is T2, PAK6 (Homo sapiens, UniProt Q9NQU5).
T2 construct: full length PAK or a PAK catalytic domain expressed on the surface of T7 bacteriophage; host or cells: T7 phage (modified T7 Select 10-3) grown in a BL21-derived E. coli host
T2 sequence (Q9NQU5 whole entry, the tested form may be a part): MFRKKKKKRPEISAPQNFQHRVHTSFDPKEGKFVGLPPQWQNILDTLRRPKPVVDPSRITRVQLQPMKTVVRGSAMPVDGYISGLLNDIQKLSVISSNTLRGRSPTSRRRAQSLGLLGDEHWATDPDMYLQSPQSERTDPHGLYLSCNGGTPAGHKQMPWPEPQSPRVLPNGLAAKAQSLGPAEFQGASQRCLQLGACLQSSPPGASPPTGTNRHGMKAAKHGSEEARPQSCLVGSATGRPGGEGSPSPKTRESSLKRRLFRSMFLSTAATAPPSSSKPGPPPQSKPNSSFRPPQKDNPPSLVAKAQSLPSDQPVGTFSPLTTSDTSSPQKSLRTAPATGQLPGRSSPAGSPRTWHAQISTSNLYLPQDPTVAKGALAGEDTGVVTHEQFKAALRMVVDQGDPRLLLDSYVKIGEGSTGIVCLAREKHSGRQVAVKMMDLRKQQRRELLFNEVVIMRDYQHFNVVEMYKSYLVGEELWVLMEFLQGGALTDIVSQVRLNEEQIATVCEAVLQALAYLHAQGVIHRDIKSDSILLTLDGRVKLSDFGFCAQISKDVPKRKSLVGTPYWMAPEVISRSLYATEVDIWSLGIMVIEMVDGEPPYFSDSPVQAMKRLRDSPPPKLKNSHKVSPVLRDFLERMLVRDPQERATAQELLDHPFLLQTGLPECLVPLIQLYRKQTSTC
Described as above. The conditions noted are these: 25° C., 1 hour, 0.1% DMSO, read-out: Kd value, Test PAK Inhibitor Affinity Assay.
Excerpt: as §1, §2

Assay [4] concerns the target T3, PAK2 (Homo sapiens, UniProt Q13177).
T3 construct: full length PAK or a PAK catalytic domain expressed on the surface of T7 bacteriophage; host or cells: T7 phage (modified T7 Select 10-3) grown in a BL21-derived E. coli host
The assay is described as above.
Excerpt: as §1, §2

In assay [5] the target is T4, PAK7 (Homo sapiens, UniProt Q9P286).
T4 construct: full length PAK or a PAK catalytic domain expressed on the surface of T7 bacteriophage; host or cells: T7 phage (modified T7 Select 10-3) grown in a BL21-derived E. coli host
T4 sequence (Q9P286 whole entry, the tested form may be a part): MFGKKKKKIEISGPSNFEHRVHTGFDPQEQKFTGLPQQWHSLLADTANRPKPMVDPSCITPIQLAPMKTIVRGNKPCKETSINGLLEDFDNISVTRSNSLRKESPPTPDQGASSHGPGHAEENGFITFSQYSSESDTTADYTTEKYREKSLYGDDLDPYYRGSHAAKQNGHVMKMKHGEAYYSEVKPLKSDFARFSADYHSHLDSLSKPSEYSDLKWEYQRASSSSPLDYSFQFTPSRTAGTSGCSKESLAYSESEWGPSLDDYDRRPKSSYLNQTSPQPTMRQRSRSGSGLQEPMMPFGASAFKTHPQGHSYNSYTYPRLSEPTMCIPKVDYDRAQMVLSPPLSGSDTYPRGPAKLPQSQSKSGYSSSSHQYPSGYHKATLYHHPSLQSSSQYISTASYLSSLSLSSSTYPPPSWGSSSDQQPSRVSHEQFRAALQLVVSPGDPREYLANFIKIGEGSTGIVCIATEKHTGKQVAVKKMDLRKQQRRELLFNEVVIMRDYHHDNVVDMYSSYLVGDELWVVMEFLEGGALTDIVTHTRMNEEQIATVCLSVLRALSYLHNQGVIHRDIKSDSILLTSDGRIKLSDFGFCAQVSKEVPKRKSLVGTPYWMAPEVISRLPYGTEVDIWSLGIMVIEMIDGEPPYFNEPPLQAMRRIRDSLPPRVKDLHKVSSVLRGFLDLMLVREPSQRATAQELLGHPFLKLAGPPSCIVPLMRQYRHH
The assay is described as above. As to conditions: 25° C., 1 hour, 0.1% DMSO, read-out: Kd value, Test PAK Inhibitor Affinity Assay.
Excerpt: as §1, §2

Molecules are shown by their SMILES. Read-outs that look alike come from different tables or passages of the source. Bounds are passed on as bounds.

T3 sequence (Q13177 whole entry, the tested form may be a part): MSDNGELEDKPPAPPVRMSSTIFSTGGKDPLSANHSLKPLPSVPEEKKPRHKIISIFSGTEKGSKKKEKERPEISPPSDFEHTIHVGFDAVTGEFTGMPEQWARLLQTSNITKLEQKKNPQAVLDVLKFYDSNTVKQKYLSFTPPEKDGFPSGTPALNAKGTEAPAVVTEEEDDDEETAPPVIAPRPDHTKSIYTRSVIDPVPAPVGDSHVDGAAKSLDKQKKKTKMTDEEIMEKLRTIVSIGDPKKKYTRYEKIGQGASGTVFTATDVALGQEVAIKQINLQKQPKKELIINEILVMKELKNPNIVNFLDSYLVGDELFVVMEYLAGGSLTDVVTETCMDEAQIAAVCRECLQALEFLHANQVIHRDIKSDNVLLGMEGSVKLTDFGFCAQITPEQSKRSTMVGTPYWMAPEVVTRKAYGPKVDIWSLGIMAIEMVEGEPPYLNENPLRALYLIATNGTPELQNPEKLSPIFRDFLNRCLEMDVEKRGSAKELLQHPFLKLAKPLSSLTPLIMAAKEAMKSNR
T1 sequence (Q13153 whole entry, the tested form may be a part): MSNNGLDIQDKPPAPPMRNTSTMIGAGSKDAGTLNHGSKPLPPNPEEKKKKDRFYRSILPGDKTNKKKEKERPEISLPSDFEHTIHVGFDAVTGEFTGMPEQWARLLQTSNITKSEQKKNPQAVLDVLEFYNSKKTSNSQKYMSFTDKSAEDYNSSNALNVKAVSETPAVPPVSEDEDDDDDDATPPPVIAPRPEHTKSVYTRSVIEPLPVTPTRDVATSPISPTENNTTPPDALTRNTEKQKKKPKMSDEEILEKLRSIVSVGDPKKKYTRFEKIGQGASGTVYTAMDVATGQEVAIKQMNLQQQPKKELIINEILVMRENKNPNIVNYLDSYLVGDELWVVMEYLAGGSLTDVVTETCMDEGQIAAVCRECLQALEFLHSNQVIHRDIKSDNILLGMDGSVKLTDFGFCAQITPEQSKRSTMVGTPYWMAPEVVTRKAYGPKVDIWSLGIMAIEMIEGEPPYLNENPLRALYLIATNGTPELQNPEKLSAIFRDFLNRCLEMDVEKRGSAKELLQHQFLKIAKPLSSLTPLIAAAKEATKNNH
PAK4, sequence (O96013 whole entry): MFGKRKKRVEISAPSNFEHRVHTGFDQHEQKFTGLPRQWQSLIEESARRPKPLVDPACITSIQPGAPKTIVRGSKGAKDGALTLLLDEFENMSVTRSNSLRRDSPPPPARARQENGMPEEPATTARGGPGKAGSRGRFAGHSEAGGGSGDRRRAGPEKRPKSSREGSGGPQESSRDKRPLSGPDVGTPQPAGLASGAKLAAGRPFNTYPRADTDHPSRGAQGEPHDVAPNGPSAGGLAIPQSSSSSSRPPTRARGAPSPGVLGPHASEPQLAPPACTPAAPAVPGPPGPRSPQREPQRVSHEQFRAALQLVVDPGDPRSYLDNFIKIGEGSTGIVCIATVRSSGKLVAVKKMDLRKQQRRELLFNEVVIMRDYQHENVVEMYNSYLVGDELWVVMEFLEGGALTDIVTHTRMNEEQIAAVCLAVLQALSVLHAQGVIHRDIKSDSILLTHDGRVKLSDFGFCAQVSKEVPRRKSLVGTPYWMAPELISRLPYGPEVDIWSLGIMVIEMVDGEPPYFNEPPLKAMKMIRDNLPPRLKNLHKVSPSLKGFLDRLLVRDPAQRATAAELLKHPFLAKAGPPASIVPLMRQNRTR

Usually Kd stands for the constant that tells how readily two partners part at equilibrium. As for `CCOc1cc2ncc(C#N)c(Nc3ccc(F)c(Cl)c3)c2cc1NC(=O)/C=C/CN(C)C` [EKB-569], the Kd in assay [1] is ≥ 10 µM; in assay [2] (PAK1, 25° C., 1 hour, 0.1% DMSO, read-out: Kd value, Test PAK Inhibitor Affinity Assay), < 5 µM; in assay [3], ≥ 10 µM; in assay [4] (PAK2, 25° C., 1 hour, 0.1% DMSO, read-out: Kd value, Test PAK Inhibitor Affinity Assay), ≥ 10 µM; in assay [5], ≥ 10 µM.
For the molecule `Nc1nc(Nc2ccc(S(N)(=O)=O)cc2)nn1C(=O)c1c(F)cccc1F` [JNJ-7706621], the values for the Kd in assay [2], in assay [3] and in assay [4] were ≥ 10 µM, < 5 µM and ≥ 10 µM, respectively.
